IC50 data for 30 molecules are collected here from patent US20030186967A1, “Acylresorcinol derivatives are selective vitronectin receptor inhibitors” (American Home Products Corporation, priority 1998, published 2003).

In the test the target is T1, Vitronectin receptor αVβ3 (Homo sapiens, UniProt P05106+P06756).
T1 construct: expressed in transfected cells; host or cells: 512P5 cells (plasma membrane preparation)
T1 sequence (P06756 31-889 limits assumed): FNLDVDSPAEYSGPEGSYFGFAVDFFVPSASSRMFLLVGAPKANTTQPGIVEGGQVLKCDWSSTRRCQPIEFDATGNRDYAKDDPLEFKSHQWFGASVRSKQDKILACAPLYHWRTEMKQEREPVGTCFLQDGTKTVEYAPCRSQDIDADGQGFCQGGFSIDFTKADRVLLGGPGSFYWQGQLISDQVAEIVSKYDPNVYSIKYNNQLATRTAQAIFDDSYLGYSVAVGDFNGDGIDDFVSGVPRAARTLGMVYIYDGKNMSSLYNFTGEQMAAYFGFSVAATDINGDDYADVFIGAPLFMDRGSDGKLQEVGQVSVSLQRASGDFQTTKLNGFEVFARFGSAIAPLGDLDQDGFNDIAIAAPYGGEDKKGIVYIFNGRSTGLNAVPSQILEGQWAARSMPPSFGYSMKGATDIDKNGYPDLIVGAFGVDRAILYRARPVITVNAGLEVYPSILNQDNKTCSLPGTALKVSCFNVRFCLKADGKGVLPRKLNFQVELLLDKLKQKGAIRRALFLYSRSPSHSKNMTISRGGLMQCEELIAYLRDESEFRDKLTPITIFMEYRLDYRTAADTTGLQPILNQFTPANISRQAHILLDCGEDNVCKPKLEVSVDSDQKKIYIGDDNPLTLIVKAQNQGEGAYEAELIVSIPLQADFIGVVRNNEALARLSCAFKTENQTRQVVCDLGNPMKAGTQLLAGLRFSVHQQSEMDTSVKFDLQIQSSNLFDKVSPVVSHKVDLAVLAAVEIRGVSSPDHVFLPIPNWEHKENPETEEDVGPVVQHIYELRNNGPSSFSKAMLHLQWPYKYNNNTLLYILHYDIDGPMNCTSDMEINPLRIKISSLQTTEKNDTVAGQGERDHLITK
T1 sequence (P06756 891-1048 partner limits assumed): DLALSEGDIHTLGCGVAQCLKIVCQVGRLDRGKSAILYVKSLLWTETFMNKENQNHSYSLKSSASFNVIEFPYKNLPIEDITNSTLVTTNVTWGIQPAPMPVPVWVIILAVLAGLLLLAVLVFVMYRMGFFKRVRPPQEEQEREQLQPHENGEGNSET
T1 sequence (P05106 27-788): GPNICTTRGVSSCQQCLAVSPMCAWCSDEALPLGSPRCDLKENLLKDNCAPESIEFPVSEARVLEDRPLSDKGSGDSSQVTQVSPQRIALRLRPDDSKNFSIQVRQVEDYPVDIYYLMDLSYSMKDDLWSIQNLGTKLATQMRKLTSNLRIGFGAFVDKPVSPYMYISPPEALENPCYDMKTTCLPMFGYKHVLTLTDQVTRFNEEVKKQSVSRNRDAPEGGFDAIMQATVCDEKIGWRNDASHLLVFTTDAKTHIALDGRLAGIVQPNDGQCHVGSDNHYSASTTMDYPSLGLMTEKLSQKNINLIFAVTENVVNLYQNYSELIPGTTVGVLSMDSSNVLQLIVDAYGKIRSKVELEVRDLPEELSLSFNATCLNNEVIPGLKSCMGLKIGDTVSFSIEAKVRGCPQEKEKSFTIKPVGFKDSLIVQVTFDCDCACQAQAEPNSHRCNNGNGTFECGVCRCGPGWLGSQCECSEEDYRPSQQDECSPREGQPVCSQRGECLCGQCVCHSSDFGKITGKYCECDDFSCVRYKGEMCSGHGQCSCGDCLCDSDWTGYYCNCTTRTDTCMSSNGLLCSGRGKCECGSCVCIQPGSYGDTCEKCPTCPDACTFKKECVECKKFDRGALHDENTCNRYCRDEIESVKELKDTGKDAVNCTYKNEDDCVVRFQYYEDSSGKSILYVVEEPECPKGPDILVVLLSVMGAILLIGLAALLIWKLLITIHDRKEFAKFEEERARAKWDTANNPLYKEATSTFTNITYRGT
Briefly: Vitronectin Receptor αVβ3 Binding Assay. The settings on record: read-out: VnR (IC50μM).
As for `O=C(Nc1ccccc1-c1ccccc1)N[C@@H](CNC(=O)c1ccc(OCCNC2=NCCN2)cc1O)C(=O)O` [Example 116, (2S)-2-{[([1,1′-biphenyl]-2-ylamino)carbonyl]amino}-3-({4-[2-(4,5-dihydro-1H-imidazol-2-ylamino)ethoxy]-2-hydroxybenzoyl}amino)propanoic acid], the IC50 is 2.76 µM.

In the case of `O=C(NCCc1ccccc1)N[C@@H](CNC(=O)c1ccc(OCCNC2=NCCN2)cc1O)C(=O)O` [Example 117, (2S)-3-({4-[2-(4,5-dihydro-1H-imidazol-2-ylamino)ethoxy]-2-hydroxybenzoyl}-amino)-2-({[(2-phenylethyl)amino]carbonyl}amino)propanoic acid], the IC50 came out at 1.52 µM. As for `CC(C)C(=O)N[C@@H](CNC(=O)c1ccc(OCCNC2=NCCN2)cc1O)C(=O)O` [Example 118, (2S)-3-({4-[2-(4,5-dihydro-1H-imidazol-2-ylamino)ethoxy]-2-hydroxybenzoyl}-amino)-2-(isobutyrylamino)propanoic acid], the figure is greater than 1 µM; as for `CCCC(=O)N[C@@H](CNC(=O)c1ccc(OCCNC2=NCCN2)cc1O)C(=O)O` [Example 119, (2S)-2-(butyrylamino)-3-({4-[2-(4,5-dihydro-1H-imidazol-2-ylamino)ethoxy]-2-hydroxybenzoyl}amino)propanoic acid], greater than 1 µM. As for `CCCCCC(=O)N[C@@H](CNC(=O)c1ccc(OCCNC2=NCCN2)cc1O)C(=O)O` [Example 120, (2S)-3-({4-[2-(4,5-dihydro-1H-imidazol-2-ylamino)ethoxy]-2-hydroxybenzoyl}-amino)-2-(hexanoylamino)propanoic acid], the figure is greater than 1 µM; as for `CCCCC(=O)N[C@@H](CNC(=O)c1ccc(OCCNC2=NCCN2)cc1O)C(=O)O` [Example 121, (2S)-3-({4-[2-(4,5-dihydro-1H-imidazol-2-ylamino)ethoxy]-2-hydroxybenzoyl}-amino)-2-(pentanoylamino)propanoic acid], greater than 1 µM; as for `CC(C)(C)CC(=O)N[C@@H](CNC(=O)c1ccc(OCCNC2=NCCN2)cc1O)C(=O)O` [Example 122, (2S)-3-({4-[2-(4,5-dihydro-1H-imidazol-2-ylamino)ethoxy]-2-hydroxybenzoyl}-amino)-2-[(3,3-dimethylbutanoyl)amino]propanoic acid], greater than 1 µM. As for `CC1(C)C(C(=O)N[C@@H](CNC(=O)c2ccc(OCCNC3=NCCN3)cc2O)C(=O)O)C1(C)C` [Example 123, (2S)-3-({4-[2-(4,5-dihydro-1H-imidazol-2-ylamino)ethoxy]-2-hydroxybenzoyl}-amino)-2-{[(2,2,3,3-tetramethylcyclopropyl)carbonyl]amino}propanoic acid], the figure is greater than 1 µM. Consider `O=C(CC12CC3CC(CC(C3)C1)C2)N[C@@H](CNC(=O)c1ccc(OCCNC2=NCCN2)cc1O)C(=O)O` [Example 124, (2S)-2-{[2-(1-adamantyl)acetyl]amino}-3-({4-[2-(4,5-dihydro-1H-imidazol-2-ylamino)ethoxy]-2-hydroxybenzoyl}amino)propanoic acid], for which the IC50 was found to be 0.734 µM. As for `C#CCCC(=O)N[C@@H](CNC(=O)c1ccc(OCCNC2=NCCN2)cc1O)C(=O)O` [Example 125, (2S)-3-({4-[2-(4,5-dihydro-1H-imidazol-2-ylamino)ethoxy]-2-hydroxybenzoyl}-amino)-2-(pent-4-ynoylamino)propanoic acid], the figure is greater than 1 µM; as for `O=C(NC[C@H](NC(=O)C1CCCCC1)C(=O)O)c1ccc(OCCNC2=NCCN2)cc1O` [Example 126, (2S)-2-[(cyclohexylcarbonyl)amino]-3-({4-[2-(4,5-dihydro-1H-imidazol-2-ylamino)ethoxy]-2-hydroxybenzoyl}amino)propanoic acid], greater than 1 µM. `O=C(Cc1ccccc1)N[C@@H](CNC(=O)c1ccc(OCCNC2=NCCN2)cc1O)C(=O)O` [Example 127, (2S)-3-({4-[2-(4,5-dihydro-1H-imidazol-2-ylamino)ethoxy]-2-hydroxybenzoyl}-amino)-2-[(2-phenylacetyl)amino]propanoic acid]: the IC50 was determined as 0.955 µM. As for `O=C(CCc1ccccc1)N[C@@H](CNC(=O)c1ccc(OCCNC2=NCCN2)cc1O)C(=O)O` [Example 128, (2S)-3-({4-[2-(4,5-dihydro-1H-imidazol-2-ylamino)ethoxy]-2-hydroxybenzoyl}-amino)-2-[(3-phenylpropanoyl)amino]propanoic acid], the figure is greater than 1 µM; as for `O=C(CC1CCCCC1)N[C@@H](CNC(=O)c1ccc(OCCNC2=NCCN2)cc1O)C(=O)O` [Example 129, (2S)-2-[(2-cyclohexylacetyl)amino]-3-({4-[2-(4,5-dihydro-1H-imidazol-2-ylamino)ethoxy]-2-hydroxybenzoyl}amino)propanoic acid], 0.635 µM; as for `O=C(/C=C/c1ccccc1)N[C@@H](CNC(=O)c1ccc(OCCNC2=NCCN2)cc1O)C(=O)O` [Example 130, (2S)-3-({4-[2-(4,5-dihydro-1H-imidazol-2-ylamino)ethoxy]-2-hydroxybenzoyl}-amino)-2-{[(E)-3-phenylprop-2-enoyl]amino}propanoic acid], greater than 1 µM. As for `O=C(NC[C@H](NC(=O)c1ccccc1Cl)C(=O)O)c1ccc(OCCNC2=NCCN2)cc1O` [Example 131, (2S)-2-[(2-chlorobenzoyl)amino]-3-({4-[2-(4,5-dihydro-1H-imidazol-2-ylamino)ethoxy]-2-hydroxybenzoyl}amino)propanoic acid], the figure is 0.405 µM; as for `Cc1ccccc1C(=O)N[C@@H](CNC(=O)c1ccc(OCCNC2=NCCN2)cc1O)C(=O)O` [Example 132, (2S)-3-({4-[2-(4,5-dihydro-1H-imidazol-2-ylamino)ethoxy]-2-hydroxybenzoyl}amino)-2-[(2-methylbenzoyl)amino]propanoic acid], 0.963 µM; as for `COc1ccccc1C(=O)N[C@@H](CNC(=O)c1ccc(OCCNC2=NCCN2)cc1O)C(=O)O` [Example 133, (2S)-3-({4-[2-(4,5-dihydro-1H-imidazol-2-ylamino)ethoxy]-2-hydroxybenzoyl}-amino)-2-[(2-methoxybenzoyl)amino]propanoic acid], greater than 1 µM. As for `O=C(N[C@@H](CNC(=O)c1ccc(OCCNC2=NCCN2)cc1O)C(=O)O)c1ccc(Cl)cc1` [Example 134, (2S)-2-[(4-chlorobenzoyl)amino]-3-({4-[2-(4,5-dihydro-1H-imidazol-2-ylamino) -ethoxy]-2-hydroxybenzoyl}amino)propanoic acid], the figure is greater than 1 µM; as for `Cc1ccc(C(=O)N[C@@H](CNC(=O)c2ccc(OCCNC3=NCCN3)cc2O)C(=O)O)cc1` [Example 135, (2S)-3-({4-[2-(4,5-dihydro-1H-imidazol-2-ylamino)ethoxy]-2-hydroxybenzoyl}-amino)-2-[(4-methylbenzoyl)amino]propanoic acid], greater than 1 µM.

Turning to `COc1ccc(C(=O)N[C@@H](CNC(=O)c2ccc(OCCNC3=NCCN3)cc2O)C(=O)O)cc1` [Example 136, (2S)-3-({4-[2-(4,5-dihydro-1H-imidazol-2-ylamino)ethoxy]-2-hydroxybenzoyl}-amino)-2-[(4-methoxybenzoyl)amino]propanoic acid], the IC50 was greater than 1 µM. Regarding `Cc1cc(C(=O)N[C@@H](CNC(=O)c2ccc(OCCNC3=NCCN3)cc2O)C(=O)O)c(C)o1` [Example 137, (2S)-3-({4-[2-(4,5-dihydro-1H-imidazol-2-ylamino)ethoxy]-2-hydroxybenzoyl}-amino)-2-[(2,5-dimethyl-3-furoyl)amino]propanoic acid], the IC50 was greater than 1 µM.

With `O=C(NC[C@H](NC(=O)c1ccccc1Br)C(=O)O)c1ccc(OCCNC2=NCCN2)cc1O` [Example 138], the IC50 came out at 0.361 µM.

Take `O=C(N[C@@H](CNC(=O)c1ccc(OCCNC2=NCCN2)cc1O)C(=O)O)c1ccc(Br)cc1` [Example 139, (2S)-2-[(4-bromobenzoyl)amino]-3-({4-[2-(4,5-dihydro-1H-imidazol-2-ylamino)ethoxy]-2-hydroxybenzoyl}amino)propanoic acid]: the IC50 is greater than 1 µM. As for `Cc1cccc(C(=O)N[C@@H](CNC(=O)c2ccc(OCCNC3=NCCN3)cc2O)C(=O)O)c1C` [Example 140, (2S)-3-({4-[2-(4,5-dihydro-1H-imidazol-2-ylamino)ethoxy]-2-hydroxybenzoyl}-amino)-2-[(2,3-dimethylbenzoyl)amino]propanoic acid], the figure is 0.0978 µM; as for `O=C(N[C@@H](CNC(=O)c1ccc(OCCNC2=NCCN2)cc1O)C(=O)O)c1cccc(Cl)c1` [Example 141, (2S)-2-[(3-chlorobenzoyl)amino]-3-({4-[2-(4,5-dihydro-1H-imidazol-2-ylamino)-ethoxy]-2-hydroxybenzoyl}amino)propanoic acid], greater than 1 µM. For `CC(C)(C)COC(=O)N[C@@H](CNC(=O)c1ccc(OCCNC2=NCCCCC2)cc1O)C(=O)O` [Example 142, (2S)-3-({2-hydroxy-4-[2-(3,4,5,6-tetrahydro-2H-azepin-7-ylamino)ethoxy]benzoyl}amino)-2-{[(neopentyloxy)carbonyl]amino}propanoic acid], the IC50 amounted to 1.6 µM. As for `O=C(N[C@@H](CNC(=O)c1ccc(OCCNC2=NCCCCC2)cc1O)C(=O)O)OCc1ccccc1` [Example 143, (2S)-2-{[(benzyloxy)carbonyl]amino}-3-({2-hydroxy-4-[2-(3,4,5,6-tetrahydro-2-azepin-7-ylamino)ethoxy]benzoyl}amino)propanoic acid], the figure is 4.79 µM. With `O=C(N[C@@H](CNC(=O)c1ccc(OCCNC2=NCCCCC2)cc1O)C(=O)O)OCC(Cl)(Cl)Cl` [Example 153, (2S)-3-({2-hydroxy-4-[2-(3,4,5,6-tetrahydro-2H-azepin-7-ylamino)ethoxy]benzoyl}-amino)-2-{[(2,2,2-trichloroethoxy)carbonyl]amino}propanoic acid], the IC50 turned out to be 2.4 µM. As for `CC(C)(C)COC(=O)N[C@@H](CNC(=O)c1ccc(OCCNC(=N)N)cc1O)C(=O)O` [Example 156, (2S)-3-{[4-(2-{[amino(imino)methyl]amino}ethoxy)-2-hydroxy-benzoyl]amino}-2-{[(neopentyloxy)carbonyl]amino}propanoic acid], the figure is 0.25 µM.
